Reference: patent US20230405011A1, “COMBINATION THERAPY FOR THE TREATMENT OF CANCER” (Novartis AG, priority 2013, published 2023)

Test: Phase Ib/II trial of Example 5: pharmacokinetics
Format: in vivo

CN(C)C(=O)c1cc2cnc(Nc3ccc(N4CCNCC4)cn3)nc2n1C1CCCC1 [Compound A1, 7-Cyclopentyl-2-(5-piperazin-1-yl-pyridin-2-ylamino)-7H-pyrrolo[2,3-d]pyrimidine-6-carboxylic acid dimethylamide]
effect of EVE on Compound A1 exposure (preliminary PK analysis): does not affect | absorption (steady state (C1D15), Compound A1+EVE+EXE): rapidly absorbed

CO[C@H]1C[C@@H]2CC[C@@H](C)[C@@](O)(O2)C(=O)C(=O)N2CCCC[C@H]2C(=O)O[C@H]([C@H](C)C[C@@H]2CC[C@@H](OCCO)[C@H](OC)C2)CC(=O)[C@H](C)/C=C(\C)[C@@H](O)[C@@H](OC)C(=O)[C@H](C)C[C@H](C)/C=C/C=C/C=C/1C [EVE, Everolimus, reference compound]
EVE exposure at steady state (in vivo): increased
